From ChEMBL document CHEMBL6103565, “Current strategies in design and synthesis of antifungals hybrid and chimeric diazine derivatives” (Bioorg Med Chem, 2025) come the findings set out here.

One may read the MIC as the least concentration at which growth counts as inhibited. As usually defined, the inhibition is how much of the control response was suppressed.

Structures are written as SMILES. Values after ≈ are worked out from the molar mass of the structure shown.

What all share (assay type): functional
Test [1] has as its system Aspergillus niger. Briefly: Antifungal activity against Aspergillus niger assessed as diameter of zone inhibition.
The subject of test [2] is Candida albicans. Nature of the test: Antifungal activity against Candida albicans assessed as diameter of zone inhibition.
The test system of test [3] is Candida albicans. Briefly: Antifungal activity against azole-resistant Candida albicans ATCC 18804 assessed as fungal growth inhibition incubated for 24 hrs by CLSI protocol based broth microdilution method.
Test [4] has as its system Candida albicans. Briefly: Antifungal activity against Candida albicans ATCC 10231 assessed as inhibition of mycelial growth relative to control.
Test [5] deals with Aspergillus niger. Nature of the test: Antifungal activity against Aspergillus niger ATCC 16404 assessed as inhibition of mycelial growth relative to control.
For test [6], the system named is Cryptococcus neoformans. Nature of the test: Antifungal activity against Cryptococcus neoformans.
The test system of test [7] is Candida albicans. Nature of the test: Antifungal activity against Candida albicans.
The subject of test [8] is Candida albicans. Nature of the test: Antifungal activity against azole-resistant Candida albicans ATCC 10231 assessed as reduction in fungal growth by XTT assay.
Test [9] deals with Candida albicans. Nature of the test: Antifungal activity against azole-resistant Candida albicans ATCC 18804 assessed as reduction in fungal growth by XTT assay. For orientation: Tetrazolium dyes change colour on reduction, which living cells bring about.
Test [10] deals with Talaromyces purpureogenus. Briefly: Antifungal activity against Talaromyces purpureogenus assessed as zone of inhibition by disc diffusion method. (A growth-free zone around the sample is the usual read-out of agar diffusion tests.)
Test [11] deals with Aspergillus niger. Briefly: Antifungal activity against Aspergillus niger assessed as zone of inhibition by disc diffusion method.
The test system of test [12] is Aspergillus terreus. Briefly: Antifungal activity against Aspergillus terreus assessed as zone of inhibition by disc diffusion method.
Test [13] deals with Candida albicans. Nature of the test: Antifungal activity against Candida albicans NRRL-Y477 assessed as zone of inhibition by disc diffusion method.
In test [14] the test system is Nakaseomyces glabratus. Nature of the test: Antifungal activity against Candida glabrata MTCC 3019 assessed as inhibition of fungal growth incubated for 24 hrs.
For test [15], the system named is Candida albicans. Briefly: Antifungal activity against Candida albicans MTCC 3018 assessed as inhibition of fungal growth incubated for 24 hrs.
In test [16] the test system is Candida albicans. Nature of the test: Antifungal activity against Candida albicans MTCC 7315 assessed as inhibition of fungal growth incubated for 24 hrs.
Test [17] has as its system Candida albicans. Nature of the test: Antifungal activity against Candida albicans MTCC 227 assessed as inhibition of fungal growth incubated for 24 hrs.
Test [18] deals with Candida parapsilosis. Nature of the test: Antifungal activity against Candida parapsilosis MTCC 1744 assessed as inhibition of fungal growth incubated for 24 hrs. The following applies: Lodderomyces parapsilosis.
The subject of test [19] is Candida albicans. Briefly: Antifungal activity against Candida albicans MTCC 3017 assessed as inhibition of fungal growth incubated for 24 hrs.
Test [20] concerns Candida albicans. Nature of the test: Antifungal activity against Candida albicans MTCC 4748 assessed as inhibition of fungal growth incubated for 24 hrs.
For test [21], the system named is Candida albicans. Nature of the test: Antifungal activity against Candida albicans MTCC 1637 assessed as inhibition of fungal growth incubated for 24 hrs.
Test [22] concerns Pichia kudriavzevii. Nature of the test: Antifungal activity against Pichia kudriavzevii MTCC 3020 assessed as inhibition of fungal growth incubated for 24 hrs.
Test [23] relates to Aspergillus niger. Nature of the test: Antifungal activity against Aspergillus niger assessed as zone of inhibition.
The test system of test [24] is Candida albicans. Nature of the test: Antifungal activity against Candida albicans assessed as zone of inhibition.
In test [25] the test system is Candida albicans. Briefly: Antifungal activity against azole-resistant Candida albicans ATCC 10231 assessed as fungal growth inhibition incubated for 24 hrs by CLSI protocol based broth microdilution method.
Test [26] deals with Candida albicans. Briefly: Antifungal activity against Candida albicans assessed as reduction in fungal growth incubated for 18 hrs by broth microdilution method. For orientation: Dilution methods test growth across graded concentrations, often in twofold steps.
Test [27] concerns Aspergillus fumigatus. Nature of the test: Antifungal activity against Aspergillus fumigatus assessed as reduction in fungal growth.
For test [28], the system named is Candida albicans. Nature of the test: Antifungal activity against Candida albicans ATCC 90028 assessed as growth inhibition incubated for 36 hrs by resazurin dye based assay.
For test [29], the system named is Botryosphaeria dothidea. Nature of the test: Antifungal activity against Botryosphaeria dothidea assessed as reduction in fungal growth at 50 ug/ml relative to control.
Test [30] relates to Botrytis cinerea. Briefly: Antifungal activity against Botrytis cinerea assessed as reduction in fungal growth at 50 ug/ml relative to control.
Test [31] relates to Phomopsis. Nature of the test: Antifungal activity against Phomopsis assessed as reduction in fungal growth at 50 ug/ml relative to control.

As for `C/C=C/N1CCN(c2nc3ccccc3nc2-c2cccc(C)c2)CC1`, the “inhibition zone (IZ)” value is 15 mm in [1] and 14 mm in test [2].
For `O=c1ccc(=O)n(-c2nc(-c3cc4c(ccc5ccccc54)oc3=O)cs2)[nH]1`, in test [3], the MIC worked out at 0.9 µg/mL (≈ 2.31 µM).
As to `CCCCCCCC(=O)O[C@@H]1[C@H](OC(=O)CCCCCCC)[C@@H](COC(c2ccccc2)(c2ccccc2)c2ccccc2)O[C@H]1n1ccc(=O)[nH]c1=O`, the “inhibition (INH)” value in test [4] is recorded as 70%; in test [5], 99%.
As for `O=c1cc[nH]c(=O)n1N=C1CC(c2ccc(O)cc2)SC(c2ccc(O)cc2)C1` (configuration not stated), the MIC in test [6] was 4 µg/mL (≈ 9.77 µM); in test [7], 0.25 µg/mL (≈ 0.611 µM).
For the compound `O=C1N=C(n2[nH]c(=O)ccc2=O)S/C1=N\Nc1ccc(Cl)cc1Cl`, the minimal inhibitory concentration (MIC) in test [8] was found to be 2.1 µg/mL (≈ 5.47 µM); in test [9], 0.6 µg/mL (≈ 1.56 µM).
On to `CCOC(=O)c1c(C)nc2sc3c(-n4nc(C)cc4C)ncnc3c2c1-c1cccs1`, for which the “inhibition zone (IZ)” value is recorded as 25 mm in [10] and 24 mm in test [11].
With `CCOC(=O)c1c(C)nc2sc3c(ncn4nc(C)nc34)c2c1-c1cccs1`, the “inhibition zone (IZ)” value in [12] and in test [13] was 25 mm throughout.
Turning to `Fc1ccc(-c2nnc3c4ccc(C(F)(F)F)nc4nc(-c4ccco4)n23)c(Cl)c1`, the minimal inhibitory concentration (MIC) in [14], in [15], in test [16], in [17], in [18] and in [19] was 3.9 µg/mL (≈ 8.99 µM) throughout. Further, the MIC in test [20], in [21] and in test [22] was 3.9 µg/mL (≈ 8.99 µM) throughout.
As to `O=c1ccc(=O)n(-c2nc(-c3ccc([N+](=O)[O-])cc3)cs2)[nH]1`, the MIC in test [3] turned out to be 3.9 µg/mL (≈ 12.3 µM).
`O=C1NC(=O)C(=C2NN=C(Nc3nnc(-c4cc([N+](=O)[O-])cc([N+](=O)[O-])c4)s3)S2)C(=O)N1`: the figures for the “inhibition zone (IZ)” value in test [23] and in [24] were 23 mm and 25 mm, respectively.
For `O=C1N=C(n2[nH]c(=O)ccc2=O)S/C1=N\Nc1ccc(-c2ccc(N/N=C3/SC(n4[nH]c(=O)ccc4=O)=NC3=O)cc2)cc1`, in [8], the minimum inhibitory concentration (MIC) was determined as 3.1 µg/mL (≈ 4.93 µM).
`O=c1ccc(=O)n(-c2nc(-c3cccs3)cs2)[nH]1`: the minimal inhibitory concentration (MIC) came to 1.9 µg/mL (≈ 6.85 µM) in test [3] and 3.9 µg/mL (≈ 14.1 µM) in [25].
As to `Cc1cc(=O)n2nc(C(=O)NN)nc2[nH]1`, the MIC in test [26] was found to be 4 µg/mL (≈ 19.2 µM).
Turning to `O=C1CS/C(=N\c2nn(-c3ccccc3)nc2C(=O)Nc2cnccn2)N1`, in test [27], the MIC was < 209 µg/mL.
Regarding `O=C(Nc1ccc(F)cc1)N1CCn2c(nnc2C(F)(F)F)C1`, the minimum inhibitory concentration (MIC) in test [28] is 6.25 µg/mL (≈ 19 µM).
As to `Cc1nc(Oc2ccc(C(=O)Nc3ccc(OC(F)(F)F)cc3)cc2)cc(C(F)(F)F)n1`, the figures for the inhibition at 50 µg/mL in [29], in test [30] and in [31] were 93.1%, 96.7% and 89%, respectively.
Consider `Fc1ccc(-c2nnc3c4ccc(C(F)(F)F)nc4nc(-c4ccccc4)n23)c(Cl)c1`, for which the MIC in test [14], in test [15], in test [16], in test [17], in test [18] and in test [19] was 3.9 µg/mL (≈ 8.79 µM) each time. Further, the MIC in test [20], in [21] and in [22] was 3.9 µg/mL (≈ 8.79 µM) throughout.
In the case of `CCOC(=O)c1c(C)nc2sc3c(=O)[nH]cnc3c2c1-c1cccs1`, the “inhibition zone (IZ)” value in test [13] and in [10] was 25 mm each time.
Turning to `Clc1ccc(COC(Cn2ccnc2)c2ccc(Cl)cc2Cl)c(Cl)c1` (configuration not stated) [MICONAZOLE], the MIC in test [14], in [15], in test [16], in [17], in test [18] and in [19] was 0.39 µg/mL (≈ 0.937 µM) throughout. In addition, the MIC in [20], in test [21] and in [22] was 0.39 µg/mL (≈ 0.937 µM) throughout.
`Cc1cc(C)nc(Nc2ccccc2)n1` [PYRIMETHANIL]: the inhibition at 50 µg/mL in test [29] amounted to 84.4%; in test [30], 82.8%; in [31], 85.1%.
On to `Clc1ccc(C(Cn2ccnc2)OCc2csc3c(Cl)cccc23)c(Cl)c1` (configuration not stated) [SERTACONAZOLE], for which the “inhibition zone (IZ)” value turned out to be 24 mm in [1] and 20 mm in [2].
For `C[C@@H](c1ncncc1F)[C@](O)(Cn1cncn1)c1ccc(F)cc1F` [VORICONAZOLE], the “inhibition zone (IZ)” value is reported as 20 mm in test [12], 17 mm in test [10] and 20 mm in [11].
